One compound from patent US8383660B2, “Dibenzyl amine compounds and derivatives” (Pfizer Inc., priority 2006, dated 2013) can be followed below.

Where a name gives a salt, the structure may show the parent alone.

The melting point is the temperature, or range, at which the solid turns liquid. The compound `CCOCC1(F)CCN([C@@H](c2ccc(C(F)(F)F)cc2CN(Cc2cc(C(F)(F)F)cc(C(F)(F)F)c2)c2nnn(C)n2)C(C)C)CC1` (as salt: mesylate) [Example 213, (N-[3,5-bis(trifluoromethyl)benzyl]-N-[2-{(1R)-1-[4-(ethoxymethyl)-4-fluoropiperidin-1-yl]-2-methylpropyl}-5-(trifluoromethyl)benzyl]-2-methyl-2H-tetrazol-5-amine)] registered a melting point of 95 °C.
